Structures are written as SMILES.

This is an account of results in patent US20160067232A1, “METHODS FOR TREATING A STROKE-RELATED SENSORIMOTOR IMPAIRMENT USING AMINOPYRIDINES” (Acorda Therapeutics, Inc., priority 2011, published 2016).

The subject of this assay is rats with middle cerebral artery occlusion (MCAO). Nature of the assay: Forelimb placing test, MCAO rats, dose escalation study (Example 17). The class given is in vivo, Sprague Dawley rat. As to conditions: for Forelimb placing compared to vehicle: p<0.001. The text has this: The limb placing tests were divided into forelimb and hindlimb tests. For the forelimb-placing test, the examiner held the rat close to a tabletop and scored the rat's ability to place the forelimb on the tabletop in response to whisker, visual, tactile, or proprioceptive stimulation. Similarly, for the hindlimb placing test, the examiner assessed the rat's ability to place the hindlimb on the tabletop in response to tactile and proprioceptive stimulation. Together, these tests reflect function and recovery in the sensorimotor systems (De Ryck et al., Brain Res 1992; 573:44-60). Separate sub-scores were obtained for each mode of sensory input and added to give total scores (for the forelimb placing test: 0=normal, 12=maximally impaired; for the hindlimb placing test: 0=normal; 6=maximally impaired). Scores were given in half-point increments (see below). Typically, there is a slow and steady recovery of limb placing behavior during the first month after stroke.
Forelimb placing test (0-12): • whisker placing (0-2); • visual placing (forward (0-2), sideways (0-2)) • tactile placing (dorsal (0-2), lateral (0-2)) • proprioceptive placing (0-2).
For each subtest, animals are scored as followed: • 0.0=immediate response • 0.5=response within 2 seconds • 1.0=response of 2-3 seconds • 1.5=response of >3 seconds • 2.0=no response
4-AP was evaluated for its ability to promote functional sensorimotor improvement following ischemic stroke in rats with stable motor deficits at times remote from their ischemic events. The animal model of ischemic stroke, i.e., the MCAO model, used in this example is the same as the animal model described in Example 2.
In the MCAO model recovery begins to plateau by 4 weeks after MCAO, at which time there are still measurable deficits in sensorimotor function. However, 4 weeks after MCAO there may still be slow continued endogenous recovery.
4-aminopyridine was dissolved in water for injection (WFI, Cellgro) and sterile filtered. […]

Turning to `Nc1ccncc1` [4-aminopyridine], the “Forelimb placing compared to vehicle” value was “significantly improved in forelimb placing” (0.5 mg/kg b.i.d. p.o., Day 59, treatment started Day 56 after MCAO) and “measureable improvement” (1 mg/kg b.i.d. p.o., Day 62). For the setting “2 mg/kg b.i.d. p.o., Day 65, p<0.0001”, the “Forelimb function compared to vehicle” value was “significant improvements”.
